Results taken from patent US5770687A, “Comformationally constrained backbone cyclized somatostatin analogs” (Peptor Limited, priority 1996, dated 1998).
Like-named read-outs stand apart in the source and are kept apart here. Peptide text beside a SMILES is read from it.

Key:
plasma lipase release = assay: Bombesin stimulated plasma lipase release in rats; assay type: in vivo, rat
Procedure: (§1) Inhibition of either insulin or amylase release has been reported (Reisine and Bell, ibid.) to be highly correlated with affinity to the SST receptor subtype SSTR-5, while i inhibition of pituitary growth hormone (GH) release, pancreatic glucagon, and gastric acid secretion were SSTR-2 mediated. […] These doses were compared to the synthetic analog SMS-201 995 administered at a dose of 10 μg/kg.
(§2) Male Wister rats (weighing 200-220 g) were anaesthetized with pentobarbital (60 mg/kg) by the intraperitoneal (IP) route. The animals were allowed free access to food and water until 18 h before experiment, when all food (but not the water) was withdrawn. Furthermore the animals were housed in cages with wide mesh wire bottoms to prevent coprophagia (feeding on excrement).
(§3) After cannulation, a 0.7 ml sample of blood was drawn from the jugular vein, and transferred into an Eppendorf tube containing 20 IU heparin solution 5000 IU/ml. One minute later the peptides were administered subcutaneously (SC in 0.2 ml of 0.9% NaCl). Control rats were pretreated with 0.2 ml of 0.9% NaCl. At time 0 (5 min. after collection of baseline blood sample-1) a bombesin infusion (50 nmol/kg/hr) was started in all animals. Additional blood samples were collected at constant time intervals of 60, 90 and 120 min. during bombesin infusion.
(§4) Blood samples were collected into ice-cold tubes containing heparin (20 IU/ml) and were centrifuged (1500 g×10 min.). Plasma samples were frozen and kept at -20° C. until assayed for amylase and lipase.
Lipase levels were measured in plasma with a commercial kit (Randox™).

human SSTR-5 = human SSTR-5 (Homo sapiens, UniProt P35346); assay: Radioligand binding, inhibition of 125I-Tyr11-SRIF binding to cloned human SSTR-5; settings: cloned human receptor
Sequence of human SSTR-5 (P35346 whole entry): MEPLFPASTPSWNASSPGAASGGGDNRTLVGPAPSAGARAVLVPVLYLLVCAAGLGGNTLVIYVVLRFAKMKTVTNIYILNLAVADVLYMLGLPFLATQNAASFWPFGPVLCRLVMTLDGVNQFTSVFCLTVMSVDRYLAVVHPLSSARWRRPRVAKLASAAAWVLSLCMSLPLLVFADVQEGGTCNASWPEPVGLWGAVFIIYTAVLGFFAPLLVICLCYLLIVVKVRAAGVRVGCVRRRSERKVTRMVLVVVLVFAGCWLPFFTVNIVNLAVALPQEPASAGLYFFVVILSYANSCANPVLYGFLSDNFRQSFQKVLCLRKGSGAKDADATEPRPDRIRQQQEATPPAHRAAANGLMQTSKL
Procedure: (§5) The somatostatin analogs were tested for their potency in inhibition of the binding of ^125 I-Tyr^11 -SRIF (based on the method described by Raynor et. al., Molecular Pharmacology 43, 838-844, 1993) to membrane preparations expressing the transmembranal somatostatin receptors (SSTR-1,2,3,4 or 5). The receptor preparations used for these tests were either from the cloned receptors selectively and stably expressed in Chinese Hamster Ovary (CHO) cells or from cell lines naturally expressing the SSTRs. […] The binding reactions were filtered, the filters were washed and the bound radioactivity was counted in gamma counter. […] In order to validate positive signals of the binding tests, and to eliminate non-specific signals, samples of irrelevant peptides, such as GnRH, that were synthesized and handled using the same procedures, were tested in the same assays as negative control samples.

SSTR-2 = assay: Radioligand binding, inhibition of 125I-Tyr11-SRIF binding to cloned SSTR-2
Procedure: as §5

[1] = system: Growth Hormone (GH) release; assay: Inhibition of growth hormone release in rats; assay type: in vivo, rat; settings: Sprague-Dawley male rats, 10 mg/kg subcutaneously, versus saline
Procedure: In vivo determination of the pharmacodynamic properties of cyclic peptide SST analogs was carried out in rats, according to known procedures. Inhibition of Growth Hormone (GH) release as a result of peptide administration was measured in Sprague-Dawley male rats. […] Time course profiles for GH release under constant experimental conditions were measured.
Adult male Sprague-Dawley rats, specific pathogen free (SPF), weighing 200-350 g, were maintained on a constant light-dark cycle (light from 8:00 to 20:00 h), temperature (21±3° C.), and relative humidity (55±10%). Laboratory chow and tap water were available ad libitum. On the day of the experiment, rats were anesthetized with pentobarbitone (50 mg/kg). […] A single blood sample (0.6 ml) was taken from the exposed cannulated jugular vein for the determination of the basal GH levels (-15 min.). Immediately thereafter the appropriate peptide treatment was administered. […] A physiological saline solution (0.9% NaCl) was administered as a control. All peptides were administered subcutaneously in a final volume of 0.2 ml. Further sampling was carried out at 15, 30, 60, and 90 minutes after peptide administration. […]
Rat growth hormone (rGH) [^125 I] levels were determined by means of a radioimmunoassay kit (Amersham). […] All samples were measured in duplicate.

plasma amylase release = assay: Bombesin stimulated plasma amylase release in rats; assay type: in vivo, rat
Procedure: as §1, §2, §3, §4
Amylase levels were measured in plasma with the commercial (Raichem™) Amylase reagent.

insulin release = assay: Glucose induced insulin release in rats; assay type: in vivo, rat
rat SSTR-5 [2] = target: T1, rat SSTR-5 (Rattus norvegicus, UniProt P30938); settings: Table 22; known SST analogs, literature values; read-out: IC50 value rSSTR 5; cited from earlier work
T1 sequence (P30938 1-363): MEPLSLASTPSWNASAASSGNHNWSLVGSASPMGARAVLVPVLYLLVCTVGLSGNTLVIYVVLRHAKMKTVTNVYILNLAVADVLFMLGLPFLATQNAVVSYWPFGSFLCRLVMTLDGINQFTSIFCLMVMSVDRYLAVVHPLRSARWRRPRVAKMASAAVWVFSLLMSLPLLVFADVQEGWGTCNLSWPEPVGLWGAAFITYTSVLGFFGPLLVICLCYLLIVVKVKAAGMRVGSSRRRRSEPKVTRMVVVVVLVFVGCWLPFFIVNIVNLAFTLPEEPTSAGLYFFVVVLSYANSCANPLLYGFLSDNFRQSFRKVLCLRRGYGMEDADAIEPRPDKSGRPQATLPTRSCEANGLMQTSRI

Lack of toxicity in rats = assay type: in vivo, rat; settings: for respiratory disturbances, stereotyped behavior, muscle tone: rats observed for 4 hours post administration
Procedure: PTR 3013 was not toxic to the rats even with doses of 4 mg/kg. These two doses are several orders of magnitude higher than those needed to elicit the desired endocrine effect. The peptides dissolved in saline produced no untoward side effects on the central nervous system, cardiovascular system, body temperature, nor on the periphery of the animals.

SSTR-3 = SSTR-3 (Homo sapiens, UniProt P32745); assay: Radioligand binding, inhibition of 125I-Tyr11-SRIF binding to cloned SSTR-3
Sequence of SSTR-3 (P32745 whole entry, species assumed): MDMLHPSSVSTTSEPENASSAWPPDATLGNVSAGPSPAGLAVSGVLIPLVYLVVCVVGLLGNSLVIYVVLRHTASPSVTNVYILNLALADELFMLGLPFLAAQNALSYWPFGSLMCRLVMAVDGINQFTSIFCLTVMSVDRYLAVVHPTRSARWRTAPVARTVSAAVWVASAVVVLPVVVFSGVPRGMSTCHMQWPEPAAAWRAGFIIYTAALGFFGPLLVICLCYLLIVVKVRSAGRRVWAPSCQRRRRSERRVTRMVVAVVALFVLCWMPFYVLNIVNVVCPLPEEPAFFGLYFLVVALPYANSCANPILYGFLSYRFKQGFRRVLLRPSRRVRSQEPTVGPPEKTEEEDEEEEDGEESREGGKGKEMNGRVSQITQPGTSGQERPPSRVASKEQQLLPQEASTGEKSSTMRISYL
Procedure: as §5

rat SSTR-5 [3] = target: T1, rat SSTR-5; assay: Radioligand binding, inhibition of 125I-Tyr11-SRIF binding to cloned rat SSTR-5
Procedure: as §5

[4] = In vitro biostability in human serum (HPLC); assay type: in vitro ADME; settings: 37° C.
Procedure: Analogs are tested for stability by their resistance to enzymatic degradation by incubation in serum or in tissue homogenate, separation of the proteins and recording of the peptide peaks by HPLC before and after incubation. […] These peaks are separated and characterized by mass spectrometry, N-terminal sequence and comparison to purified peptide peaks.
The assay was based on HPLC determination of peptide degradation as a function of time in serum at 37° C.

[5] = system: somatostatin receptors (SSTR-1,2,3,4 or 5); assay: Radioligand binding assay, negative control peptides; settings: irrelevant peptides tested in the same assays
Procedure: as §5

[6] = Table 21, inhibition of iodinated SRIF-14 binding, CHO cells, tested at 10^-6, 10^-7, 10^-8 M, read-out: IC50 SSTR-2

For `CC(C)[C@@H]1NC(=O)[C@H](CCCCN)NC(=O)[C@@H](Cc2c[nH]c3ccccc23)NC(=O)[C@H](Cc2ccc(O)cc2)NC(=O)[C@H](Cc2ccccc2)NCCNC(=O)CCCN([C@@H](Cc2ccccc2)C(=O)N[C@H](C(N)=O)[C@@H](C)O)C1=O` [PTR 3046, cyclo(PheN2^6 -Tyr^7 -DTrp^8 -Lys^9 -Val^10 -PheC3^11)-Thr^12 -NH2] (HELM PEPTIDE1{[O=C([C@H](Cc1ccccc1)NCCN[*:3])[*:2]].Y.[dW].K.V.[O=C([C@H](Cc1ccccc1)N(CCCC(=O)[*:3])[*:1])[*:2]].T.[am]}$PEPTIDE1,PEPTIDE1,1:R3-6:R3$$$V2.0), the “inhibition of bombesin-stimulated lipase secretion” value (plasma lipase release; 3 μg/kg SC, 90 min.) was 33%, the “inhibition of bombesin-stimulated lipase secretion” value (plasma lipase release; 3 μg/kg SC, 120 min.) was 26% and the “inhibition of bombesin-stimulated lipase secretion” value (plasma lipase release; 12.5 μg/kg SC, 90 min.) was 30%. The “inhibition of bombesin-stimulated lipase secretion” value (plasma lipase release; 12.5 μg/kg SC, 120 min.) was 25%, the “inhibition of bombesin-stimulated lipase secretion” value (plasma lipase release; 25 μg/kg SC, 90 min.) was 51% and the “inhibition of bombesin-stimulated lipase secretion” value (plasma lipase release; 25 μg/kg SC, 120 min.) was 35%. The “affinity to human SSTR-5, in words” value (human SSTR-5) was “high affinity”, the “binding to SSTR-2, in words” value (SSTR-2) was “does not bind” and the IC50 (SSTR-2; [6]) was 500 nM. For the same molecule, the IC50 (SSTR-2; text summary of Example 85 binding data, read-out: affinity to SSTR-2) was > 1000 nM, the “inhibition of growth hormone release” value [1] was “not significantly different from saline” and the “inhibition of bombesin induced release of plasma amylase” value (from here on “inhibition … of plasma amylase”) (plasma amylase release; 3 μg/kg SC, 90 min.) was 31%. For the same molecule, the “inhibition … of plasma amylase” value (plasma amylase release; 3 μg/kg SC, 120 min.) was 23%, the “inhibition … of plasma amylase” value (plasma amylase release; 25 μg/kg SC, 90 min.) was 60% and the “inhibition … of plasma amylase” value (plasma amylase release; 25 μg/kg SC, 120 min.) was 52%. For the same molecule, the “decrease in insulin release” value (insulin release; Wister rats, 7 μg/kg subcutaneously, glucose 0.5 g/kg IV, versus control rats, p<0.05) was 43% and the “potency on insulin release relative to Octreotide” value (insulin release; in vivo, from present study and manufacturer's ED 50 of Octreotide) was 4 times.

For `C[C@@H](O)[C@@H]1NC(=O)[C@H](CCCCN)NC(=O)[C@@H](Cc2c[nH]c3ccccc23)NC(=O)[C@H](Cc2ccccc2)NC(=O)[C@@H](NC(=O)[C@H](N)Cc2ccccc2)CSSC[C@@H](C(=O)N[C@H](CO)[C@@H](C)O)NC1=O` [Octreotide, DPhe^5 -cyclo(Cys^6 -Phe^7 -DTrp^5 -Lys^9 -Thr^10 -Cys^11)-Thr^12 -ol], the IC50 (rat SSTR-5 [2]) is listed as 0.2 nM.

With `CC(=O)N1CCCNC(=O)CCN(CC(=O)N[C@@H](Cc2ccccc2)C(=O)N[C@H](C(N)=O)[C@@H](C)O)C(=O)[C@H](CCCCN)NC(=O)[C@@H](Cc2c[nH]c3ccccc23)NC(=O)[C@H](Cc2ccccc2)NC(=O)C1` [PTR 3013] (HELM PEPTIDE1{[ac].[O=C(CN(CCCN[*:3])[*:1])[*:2]].F.[dW].K.[O=C(CN(CCC(=O)[*:3])[*:1])[*:2]].F.T.[am]}$PEPTIDE1,PEPTIDE1,2:R3-6:R3$$$V2.0) the IC50 (SSTR-2; [6]) was > 10000 nM, the “respiratory disturbances, stereotyped behavior, muscle tone” value (Lack of toxicity in rats) was “no respiratory disturbances” and the toxicity (Lack of toxicity in rats; rats, doses of 4 mg/kg) was “not toxic”.

For `C[C@@H](O)[C@H](NC(=O)CN1CCCNC(=O)CCN(C(=O)[C@H](N)Cc2ccccc2)CC(=O)N[C@@H](Cc2ccccc2)C(=O)N[C@H](Cc2c[nH]c3ccccc23)C(=O)N[C@@H](CCCCN)C(=O)N[C@@H]([C@@H](C)O)C1=O)C(N)=O` [PTR 3007] (HELM PEPTIDE1{[dF].[O=C(CN(CCC(=O)[*:3])[*:1])[*:2]].F.[dW].K.T.[O=C(CN(CCCN[*:3])[*:1])[*:2]].T.[am]}$PEPTIDE1,PEPTIDE1,2:R3-7:R3$$$V2.0), the IC50 (SSTR-3) was > 10000 nM, the IC50 (rat SSTR-5 [3]) was > 2000 nM and the “respiratory disturbances, stereotyped behavior, muscle tone” value (Lack of toxicity in rats) was “no respiratory disturbances”.

In the case of `C[C@@H](O)[C@H](NC(=O)[C@H](Cc1ccccc1)NC(=O)CN1CCNC(=O)CCN(C(=O)[C@H](N)Cc2ccccc2)CC(=O)N[C@@H](Cc2ccccc2)C(=O)N[C@H](Cc2c[nH]c3ccccc23)C(=O)N[C@@H](CCCCN)C1=O)C(N)=O` [PTR 3019] (HELM PEPTIDE1{[dF].[O=C(CN(CCC(=O)[*:3])[*:1])[*:2]].F.[dW].K.[O=C(CN(CCN[*:3])[*:1])[*:2]].F.T.[am]}$PEPTIDE1,PEPTIDE1,2:R3-6:R3$$$V2.0), the IC50 (SSTR-2; [6]) is reported as > 10000 nM.

In the case of `C[C@@H](O)[C@H](NC(=O)CN1CCCNC(=O)CN(C(=O)[C@H](N)Cc2ccccc2)CC(=O)N[C@@H](Cc2ccccc2)C(=O)N[C@H](Cc2c[nH]c3ccccc23)C(=O)N[C@@H](CCCCN)C(=O)N[C@@H]([C@@H](C)O)C1=O)C(N)=O` [PTR 3004], the IC50 (SSTR-3) is reported as > 10000 nM and the IC50 (rat SSTR-5 [3]) is reported as > 2000 nM.

In the case of `C[C@@H](O)[C@H](NC(=O)CN1CCNC(=O)CCN(C(=O)[C@H](N)Cc2ccccc2)CC(=O)N[C@@H](Cc2ccccc2)C(=O)N[C@H](Cc2c[nH]c3ccccc23)C(=O)N[C@@H](CCCCN)C(=O)N[C@@H]([C@@H](C)O)C1=O)C(N)=O` [PTR 3002] (HELM PEPTIDE1{[dF].[O=C(CN(CCC(=O)[*:3])[*:1])[*:2]].F.[dW].K.T.[O=C(CN(CCN[*:3])[*:1])[*:2]].T.[am]}$PEPTIDE1,PEPTIDE1,2:R3-7:R3$$$V2.0), the “in vitro biostability (peptide degradation as a function of time)” value [4] is reported as “as stable as Octreotide, is more stable than the corresponding non-cyclic structure, and is much more stable than SRIF”.

In the case of “DPhe^5 -cyclo(Cys^6 -Tyr^7 -DTrp^8 -Lys^9 -Val^10 -Cys^11)-Trp^12 -NH2 [RC-160]”, the IC50 (rat SSTR-5 [2]) is given as 0.2 nM.

In the case of “GnRH: irrelevant peptide tested as negative control sample”, the “binding activity of negative control samples” value [5] is reported as “no binding activity”.
